# In ChEMBL document CHEMBL1629651, “A novel insertion mutation in Streptomyces coelicolor ribosomal S12 protein results in paromomycin resistance and antibiotic overproduction” (2009):
# Active and inactive are the calls of the source. The calls are words filed in the database; no cut-off is given here.
# Key:
# Streptomyces coelicolor [1] = experiment: Antimicrobial activity against paromomycin-resistant Streptomyces coelicolor SP2 harboring rpsL K88E mutant gene and inserted glycine at position 92 of the gene after 48 hrs; assay type: functional
# Streptomyces coelicolor [2] = experiment: Antimicrobial activity against paromomycin-resistant Streptomyces coelicolor SP1 harboring rpsL A262G and C271T mutant gene after 48 hrs; assay type: functional
# Streptomyces coelicolor [3] = experiment: Antimicrobial activity against paromomycin-resistant Streptomyces coelicolor KO-347 harboring rpsl P91S mutant gene after 48 hrs; assay type: functional
# Streptomyces coelicolor [4] = experiment: Antimicrobial activity against streptomycin-resistant Streptomyces coelicolor KO-178 harboring rpsL K88E mutant gene after 48 hrs; assay type: functional
# Streptomyces coelicolor [5] = experiment: Antimicrobial activity against paromomycin-resistant Streptomyces coelicolor 92G harboring rpsL gene with inserted glycine at position 92 after 48 hrs; assay type: functional
# Streptomyces coelicolor [6] = experiment: Antimicrobial activity against Streptomyces coelicolor 1147 after 48 hrs; assay type: functional
# Streptomyces coelicolor [7] = experiment: Binding affinity to Streptomyces coelicolor KO-178 30S ribosomal protein S12 K88E mutant assessed as inhibition of protein synthesis at 0.2 ug/ml by fluorescence assay
# [8] = molecular target: T1, Small ribosomal subunit protein uS12 (Streptomyces coelicolor (strain ATCC BAA-471 / A3(2) / M145)) (UniProt P0A4A3); experiment: Binding affinity to Streptomyces coelicolor 1147 30S ribosomal protein S12 assessed as inhibition of protein synthesis at 0.2 ug/ml by fluorescence assay
# T1 sequence (whole entry): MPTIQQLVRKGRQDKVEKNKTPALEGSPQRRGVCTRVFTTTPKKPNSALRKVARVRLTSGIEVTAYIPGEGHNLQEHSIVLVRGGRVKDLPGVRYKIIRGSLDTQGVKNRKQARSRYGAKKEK
# Streptomyces coelicolor [9] = experiment: Binding affinity to Streptomyces coelicolor KO-347 30S ribosomal ptotein S12 GI92 mutant assessed as inhibition of protein synthesis at 0.2 ug/ml by fluorescence assay
# [10] = Streptomyces coelicolor, 1147, 48 h
Molecule,"MIC (Streptomyces coelicolor [1]; SP2, 48 h) [µg/mL]","MIC (Streptomyces coelicolor [2]; SP1, 48 h) [µg/mL]","MIC (Streptomyces coelicolor [3]; KO-347, 48 h) [µg/mL]","MIC (Streptomyces coelicolor [4]; KO-178, 48 h) [µg/mL]",MIC (Streptomyces coelicolor [5]) [µg/mL],MIC (Streptomyces coelicolor [6]; [10]) [µg/mL],inhibition (Streptomyces coelicolor [7]) [%],inhibition [8] [%],inhibition (Streptomyces coelicolor [9]),MIC (Streptomyces coelicolor [1]) [µg/mL],MIC (Streptomyces coelicolor [2]) [µg/mL],MIC (Streptomyces coelicolor [3]) [µg/mL],MIC (Streptomyces coelicolor [4]) [µg/mL],MIC (Streptomyces coelicolor [6]) [µg/mL]
NC[C@@H]1O[C@H](O[C@H]2[C@@H](O)[C@H](O[C@@H]3[C@@H](O)[C@H](N)C[C@H](N)[C@H]3O[C@H]3O[C@H](CN)[C@@H](O)[C@H](O)[C@H]3N)O[C@@H]2CO)[C@H](N)[C@@H](O)[C@@H]1O [FRAMYCETIN],0.2,0.2,0.5,0.8,0.5,0.3,–,–,–,–,–,–,–,–
CC(=O)O[C@H]1C[C@@]2(C)[C@@H](C[C@@H](O)[C@H]3[C@@]4(C)CC[C@@H](O)[C@@H](C)[C@@H]4CC[C@@]32C)/C1=C(\CCC=C(C)C)C(=O)O [FUSIDIC ACID],20,20,50,50,50,50,–,–,–,–,–,–,–,–
CN[C@@H]1[C@@H](O)[C@@H](O[C@@H]2[C@@H](O)[C@H](O[C@H]3O[C@H]([C@@H](C)O)[C@@H](O)[C@H](O)[C@H]3N)[C@@H](N)C[C@H]2N)OC[C@]1(C)O [GENETICIN],0.5,0.5,0.3,0.3,1,0.3,–,–,–,–,–,–,–,–
NC[C@H]1O[C@H](O[C@H]2[C@H](O)[C@@H](O[C@H]3O[C@H](CO)[C@@H](O)[C@H](N)[C@H]3O)[C@H](N)C[C@@H]2N)[C@H](O)[C@@H](O)[C@@H]1O [KANAMYCIN],0.5,0.5,0.5,0.8,1,0.8,–,–,–,–,–,–,–,–
CCC[C@@H]1C[C@@H](C(=O)N[C@@H]([C@H]2O[C@H](SC)[C@H](O)[C@@H](O)[C@H]2O)[C@@H](C)O)N(C)C1 [LINCOMYCIN],10,40,50,40,20,50,–,–,–,–,–,–,–,–
NC[C@@H]1O[C@H](O[C@H]2[C@@H](O)[C@H](O[C@@H]3[C@@H](O)[C@H](N)C[C@H](N)[C@H]3O[C@H]3O[C@H](CO)[C@@H](O)[C@H](O)[C@H]3N)O[C@@H]2CO)[C@H](N)[C@@H](O)[C@@H]1O [PAROMOMYCIN],3,2,0.8,0.3,2,0.1,> 80,80,inactive,–,–,–,–,–
CN[C@@H]1[C@H](O[C@H]2[C@H](O[C@H]3[C@H](O)[C@@H](O)[C@H](N=C(N)N)[C@@H](O)[C@@H]3N=C(N)N)O[C@@H](C)[C@]2(O)C=O)O[C@@H](CO)[C@H](O)[C@H]1O [STREPTOMYCIN],> 200,200,20,100,20,1,–,–,–,–,–,–,–,–
CN(C)[C@@H]1C(O)=C(C(N)=O)C(=O)[C@@]2(O)C(O)=C3C(=O)c4c(O)cccc4[C@@](C)(O)[C@H]3C[C@@H]12 [TETRACYCLINE],3,3,5,10,10,10,–,–,–,–,–,–,–,–
GENTAMICIN,–,–,–,–,0.5,–,–,–,–,0.5,0.5,0.5,0.1,0.1
